Among the data in patent publication US9540391B2, “Isomannide derivatives as inhibitors of soluble epoxide hydrolase” (SANOFI, priority 2013, dated 2017) are IC50 values, retold here.

pIC50: −log10 of the molar value. Counter-ions that a name gives are not always drawn.

The target in the test is T1, recombinant sEH (Homo sapiens, UniProt P34913).
T1 construct: made in house; host or cells: Sf9 insect cells
T1 sequence (P34913 1-555): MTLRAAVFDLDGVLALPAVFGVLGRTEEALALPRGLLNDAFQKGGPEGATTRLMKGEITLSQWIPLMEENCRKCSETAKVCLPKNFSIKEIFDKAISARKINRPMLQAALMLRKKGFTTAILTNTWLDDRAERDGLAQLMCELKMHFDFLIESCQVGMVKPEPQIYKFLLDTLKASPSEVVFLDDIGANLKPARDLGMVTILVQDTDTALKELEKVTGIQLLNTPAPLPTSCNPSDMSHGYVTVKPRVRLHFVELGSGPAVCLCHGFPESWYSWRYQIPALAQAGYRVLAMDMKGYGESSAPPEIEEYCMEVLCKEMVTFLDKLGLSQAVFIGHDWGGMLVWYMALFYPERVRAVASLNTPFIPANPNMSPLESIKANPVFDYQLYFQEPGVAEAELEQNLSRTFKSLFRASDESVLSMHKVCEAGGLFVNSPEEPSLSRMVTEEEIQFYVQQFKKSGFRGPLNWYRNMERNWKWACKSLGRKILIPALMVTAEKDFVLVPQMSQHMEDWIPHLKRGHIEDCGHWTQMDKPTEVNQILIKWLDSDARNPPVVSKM
Nature of the test: biochemical screening assay for inhibition of soluble epoxide hydrolase (fluorometric, Phome substrate). In short, it runs like this:
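Human sEH from Sf9 cells (2 nM final) was pre-incubated 15 min at 30 °C with compound (0.0001–10 μM), then reacted 60 min at 30 °C with 5 μM Phome in 25 mM Hepes/0.01% albumin. Fluorescence of released 6-methoxy-2-naphthaldehyde was read before substrate and at end; IC50 from % inhibition.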
`Cc1ncccc1O[C@H]1CO[C@H]2[C@@H]1OC[C@@H]2NC(=O)NCCc1ccc(S(C)(=O)=O)cc1` [Example 223, 1-[2-(4-Methanesulfonyl-phenyl)-ethyl]-3-[(3S,3aR,6S,6aS)-6-(2-methyl-pyridin-3-yloxy)-hexahydro-furo[3,2-b]furan-3-yl]-urea]: the pIC50 – broadly, −log10 of the IC50, conventionally taken in molar units – was 6.58.

On to `Cc1ncccc1O[C@H]1CO[C@H]2[C@@H]1OC[C@@H]2NC(=O)NC1(C)COC1` [Example 240, 1-(3-Methyl-oxetan-3-yl)-3-[(3S,3aR,6S,6aS)-6-(2-methyl-pyridin-3-yloxy)-hexahydro-furo[3,2-b]furan-3-yl]-urea], for which the pIC50 is 5.46.

Consider `O=C(Nc1ccccc1)N[C@H]1CO[C@@H]2[C@@H]1OC[C@H]2C#Cc1ccccc1` [Example 286, 1-Phenyl-3-[(3S,3aR,6R)-6-((S)-phenylethynyl)-hexa-hydro-furo[3,2-b]furan-3-yl]-urea], for which the negative logarithm of the IC50 (pIC50) is 6.64. Next, `C[C@H](NC(=O)N[C@H]1CO[C@H]2[C@@H]1OC[C@@H]2Oc1ccc(F)cc1)c1ccc(F)cc1` [Example 160, 1-[(3S,3aR,6S,6aS)-6-(4-Fluoro-phenoxy)-hexahydro-furo[3,2-b]furan-3-yl]-3-[(S)-1-(4-fluoro-phenyl)-ethyl]-urea]: 7.51; `O=C(NC1CCCCC1)N[C@H]1CO[C@H]2[C@@H]1OC[C@@H]2Oc1ccc(C(=O)O)cc1` [Example 11, 4-[(3S,3aS,6S,6aR)-6-(3-cyclohexyl-ureido)-hexahydro-furo[3,2-b]furan-3-yloxy]-benzoic acid]: 8.30; `Cc1ccc(O[C@H]2CO[C@H]3[C@@H]2OC[C@@H]3NC(=O)NC2CCCCC2)cn1` [Example 28, 1-Cyclohexyl-3-[(3S,3aR,6S,6aS)-6-(6-methyl-pyridin-3-yloxy)-hexahydro-furo[3,2-b]furan-3-yl]-urea]: 8.10.

Turning to `Cc1cnc(S[C@H]2CO[C@H]3[C@@H]2OC[C@@H]3NC(=O)NC2CCCCC2)nc1` [Example 50, 1-Cyclohexyl-3-[(3S,3aR,6S,6aS)-6-(5-methyl-pyrimidin-2-ylsulfanyl)-hexahydro-furo[3,2-b]furan-3-yl]-urea; hydrochloride], the pIC50 is 8.00. Next, `COC(=O)c1cccc(NC(=O)NC2COC3C(C#Cc4ccsc4)COC23)c1` [Example 309, 3-[3-((3S,3aR,6S,6aR)-6-Thio-phen-3-ylethynyl-hexahydro-furo[3,2-b]furan-3-yl)-ureido]-benzoic acid methyl ester]: 7.80; `CN(C)C[C@H]1CO[C@H]2[C@@H]1OC[C@@H]2NC(=O)NC1CCCCC1` [Example 9, 1-cyclohexyl-3-((3S,3aR,6S,6aR)-6-dimethylaminomethyl-hexahydro-furo[3,2-b]furan-3-yl)-urea; trifluoroacetate]: 6.35.

For the molecule `Cc1nc(-c2cccc(O[C@H]3CO[C@H]4[C@@H]3OC[C@@H]4NC(=O)NC3CCCCC3)c2)no1` [Example 129, 1-Cyclohexyl-3-{(3S,3aR,6S,6aS)-6-[3-(5-methyl-[1,2,4]oxadiazol-3-yl)-phenoxy]-hexahydro-furo[3,2-b]furan-3-yl}-urea], the pIC50 was 8.70. For the molecule `O=C(NC1CCCCC1)N[C@H]1CO[C@H]2[C@@H]1OC[C@@H]2Oc1ccc(Oc2ccccn2)cc1` [Example 109, 1-Cyclohexyl-3-{(3S,3aR,6S,6aS)-6-[4-(pyridin-2-yloxy)-phenoxy]-hexa-hydro-furo[3,2-b]furan-3-yl}-urea], the pIC50 is 9.00. With `O=C(NC1CCCCC1)N[C@H]1CO[C@H]2[C@@H]1OC[C@@H]2Oc1ccc(F)c(Cl)c1` [Example 29, 1-[(3S,3aR,6S,6aS)-6-(3-Chloro-4-fluoro-phenoxy)-hexahydro-furo[3,2-b]furan-3-yl]-3-cyclohexyl-urea], the pIC50 is 8.70.

Take `O=C(NC1CCCCC1)N[C@H]1CO[C@H]2[C@@H]1OC[C@@H]2Oc1ccccc1CNCC1CCCO1` (stereo partly drawn) [Example 136, 1-Cyclohexyl-3-[(3S,3aR,6S,6aS)-6-(2-{[(tetrahydro-furan-2-ylmethyl)-ao]-methyl}-phenoxy)-hexahydro-furo[3,2-b]furan-3-yl]-urea; trifluoroacetate]: the negative logarithm of the IC50 (pIC50) is 6.66.
